This note sets out measurements from US20250340538A1, “IMIDAZOLONE DERIVATIVES AS INHIBITORS OF PROTEIN KINASES IN PARTICULAR DYRK1A, CLK1 AND/OR CLK4” (PERHA PHARMACEUTICALS, priority 2021, published 2025).

SMILES strings stand for the structures. Where a name gives a salt, the structure may show the parent alone.

One test has as its target T1, DYRK1A (Homo sapiens, UniProt Q13627).
T1 construct: GST-fusion or His-tag (not specified per kinase); purchased ProQinase GmbH; host or cells: Sf9 insect cells or E. coli (not specified per kinase)
Description: Radiometric protein kinase assay (33PanQinase Activity Assay), DYRK1A. The test is classed as biochemical. The following applies: for IC50: class by IC50 on DYRK1A, from dose-response curves, read-out: Potency Class DYRK1A; for Selectivity Class DYRK1A vs. CLK1: ratio of IC50 on CLK1 over IC50 on DYRK1A; for Selectivity Class DYRK1A vs. DYRK1B: ratio of IC50 on DYRK1B over IC50 on DYRK1A. On the procedure: The IC50 profile of all compounds was determined using 12 protein kinases (CDK2/cyclin E, CK1ε, CLK1, 2, 3, 4, DYRK1A, 1B, 2, 3, 4, GSK3β).
(§1) The compounds were provided as […] in 100% DMSO. Prior to testing, the 1 μM stock solutions were subjected to a serial, semi-logarithmic dilution using 100% DMSO as a solvent. […] In the process, 90 μl H2O were added to each well of each compound dilution plate. To minimize potential precipitation, the H2O was added to each plate only a few minutes before the transfer of the compound solutions into the assay plates. The plate was shaken thoroughly, resulting in a compound dilution plate/10% DMSO.
(§2) For the assays (see below), 5 μL solution from each well of the compound dilution plates/10% DMSO were transferred into the assay plates. The final volume of the assay was 50 μL. All compounds were tested at 10 final assay concentrations in the range from 10 μM to 30 nM. The final DMSO concentration in the reaction cocktails was 1% in all cases.
(§3) All protein kinases provided by ProQinase were expressed in Sf9 insect cells or in E. coli as recombinant GST-fusion proteins or His-tagged proteins, either as full-length or enzymatically active fragments. All kinases were produced from human cDNAs and purified by either GSH-affinity chromatography or immobilized metal. Affinity tags were removed from a number of kinases during purification. The purity of the protein kinases was examined by SDS-PAGE/Coomassie staining, the identity was checked by mass spectroscopy.
(§4) A radiometric protein kinase assay (33PanQinase® Activity Assay) was used for measuring the kinase activity of the 12 protein kinases. All kinase assays were performed in 96-well FlashPlates™ from PerkinElmer (Boston, MA, USA) in a 50 μL reaction volume. The reaction cocktail was pipetted in four steps in the following order: • 25 μL of assay buffer (standard buffer/[γ-^33P]-ATP), • 10 μL of ATP solution (in H2O), • 5 μL of test compound (in 10% DMSO), • 10 μL of enzyme/substrate mixture.
(§5) The reaction cocktails were incubated at 30° C. for 60 minutes. The reaction was stopped with 50 μL of 2% (v/v) H3PO4, plates were aspirated and washed two times with 200 μL 0.9% (w/v) NaCl. Incorporation of ^33Pi was determined with a microplate scintillation counter (Microbeta, Wallac). The IC50 values for all compounds were calculated from the dose response curves

The next test has as its target T2, CLK1 (Homo sapiens, UniProt P49759).
T2 construct: GST-fusion or His-tag (not specified per kinase); purchased ProQinase GmbH; host or cells: Sf9 insect cells or E. coli (not specified per kinase)
Kind of test: Radiometric protein kinase assay (33PanQinase Activity Assay), CLK1. The test is classed as biochemical. The following applies: class by IC50 on CLK1, from dose-response curves; read-out: Potency Class CLK1. On the procedure: Assays were performed by ProQinase GmbH (Engesserstr. 4, D-79108 Freiburg, Germany. www.proqinase.com). The IC50 profile of all compounds was determined using 12 protein kinases (CDK2/cyclin E, CK1ε, CLK1, 2, 3, 4, DYRK1A, 1B, 2, 3, 4, GSK3β).
as §1, §2, §3, §4, §5
As a parameter for assay quality, the Z′-factor (Zhang et al., J. Biomol. Screen. 2: 67-73, 1999) for the low and high controls of each assay plate (n=8) was used. ProQinase's criterion for repetition of an assay plate is a Z′-factor below 0.4 (Iversen et al., J. Biomol. Screen. 3: 247-252, 2006).

T2 sequence (P49759 whole entry, the tested form may be a part): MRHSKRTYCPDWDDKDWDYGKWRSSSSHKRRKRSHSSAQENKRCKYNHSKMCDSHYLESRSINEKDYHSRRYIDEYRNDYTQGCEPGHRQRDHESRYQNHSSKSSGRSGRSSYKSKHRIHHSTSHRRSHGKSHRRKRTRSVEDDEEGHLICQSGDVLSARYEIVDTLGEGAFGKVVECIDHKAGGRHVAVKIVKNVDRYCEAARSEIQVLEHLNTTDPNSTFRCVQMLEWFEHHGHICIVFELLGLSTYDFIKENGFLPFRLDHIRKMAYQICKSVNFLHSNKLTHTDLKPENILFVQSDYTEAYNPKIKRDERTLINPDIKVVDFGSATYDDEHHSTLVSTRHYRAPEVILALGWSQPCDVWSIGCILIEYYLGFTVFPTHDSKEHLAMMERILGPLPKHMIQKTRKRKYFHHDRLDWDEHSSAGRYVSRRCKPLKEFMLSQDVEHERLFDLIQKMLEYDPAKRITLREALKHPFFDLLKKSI

On to `COC[C@@H](CC(C)C)NC1=N/C(=C\c2ccc3ncccc3c2)C(=O)N1` [Compound 47, (4Z)-2-[[(1R)-1-(methoxymethyl)-3-methyl-butyl]amino]-4-(6-quinolylmethylene)-1H-imidazol-5-one], for which, on DYRK1A, the IC50 lay in the range of 25 to 50 nM; the “Selectivity Class DYRK1A vs. CLK1” value was “II (ratio between 2 and 10 fold)”; the “Selectivity Class DYRK1A vs. DYRK1B” value is “II (ratio between 2 and 10 fold)”. Further, the IC50 on CLK1 is more than 50 nM.
Turning to `Cc1csc(CNC2=N/C(=C\c3ccc4nccnc4c3)C(=O)N2)n1` [Compound 31, (4Z)-2-[(4-methylthiazol-2-yl)methylamino]-4-(quinoxalin-6-ylmethylene)-1H-imidazol-5-one], on DYRK1A, the IC50 is more than 50 nM; the “Selectivity Class DYRK1A vs. CLK1” value is “III (ratio between 0.5 and 2 fold)”; the “Selectivity Class DYRK1A vs. DYRK1B” value is “III (ratio between 0.5 and 2 fold)”. Further, the IC50 on CLK1 is more than 50 nM.
As to `COC[C@H](NC1=N/C(=C\c2ccc3nnccc3c2)C(=O)N1)c1ccccc1` [Compound 72, (4Z)-4-(cinnolin-6-ylmethylene)-2-[[(1R)-2-methoxy-1-phenyl-ethyl]amino]-1H-imidazol-5-one], on DYRK1A, the IC50 is more than 50 nM; the “Selectivity Class DYRK1A vs. CLK1” value was “III (ratio between 0.5 and 2 fold)”; the “Selectivity Class DYRK1A vs. DYRK1B” value is “III (ratio between 0.5 and 2 fold)”. The IC50 at CLK1 is more than 50 nM.
On to `O=C1NC(Nc2ccccn2)=N/C1=C\c1ccc2nccnc2c1` [Compound 35, (4Z)-2-(2-pyridylamino)-4-(quinoxalin-6-ylmethylene)-1H-imidazol-5-one], for which, at DYRK1A, the IC50 is more than 50 nM; the “Selectivity Class DYRK1A vs. CLK1” value was “II (ratio between 2 and 10 fold)”; the “Selectivity Class DYRK1A vs. DYRK1B” value was “II (ratio between 2 and 10 fold)”. For the same molecule, the IC50 on CLK1 was more than 50 nM.
`O=C1NC(NC2CCCCC2)=N/C1=C\c1ccc2ncncc2c1` [Compound 76, (4Z)-2-(cyclohexylamino)-4-(quinazolin-6-ylmethylene)-1H-imidazol-5-one]: on DYRK1A, the IC50 was more than 50 nM; the “Selectivity Class DYRK1A vs. CLK1” value was “III (ratio between 0.5 and 2 fold)”; the “Selectivity Class DYRK1A vs. DYRK1B” value was “II (ratio between 2 and 10 fold)”. Further, the IC50 at CLK1 was more than 50 nM.
Consider `O=C1NC(N[C@@H]2CCOC2)=N/C1=C\c1ccc2cnccc2c1` [Compound 66, (4Z)-4-(6-Isoquinolylmethylene)-2-[[(3R)-tetrahydrofuran-3-yl]amino]-1H-imidazol-5-one], for which, at DYRK1A, the IC50 was more than 50 nM; the “Selectivity Class DYRK1A vs. CLK1” value was “III (ratio between 0.5 and 2 fold)”; the “Selectivity Class DYRK1A vs. DYRK1B” value is “IV (ratio between 0.1 and 0.5 fold)”. The IC50 at CLK1 was more than 50 nM.
Regarding `COC[C@H](NC1=N/C(=C\c2ccc3cnncc3c2)C(=O)N1)c1ccccc1` [Compound 73, (4Z)-2-[[(1R)-2-methoxy-1-phenyl-ethyl]amino]-4-(phthalazin-6-ylmethylene)-1H-imidazol-5-one], at DYRK1A, the IC50 is more than 50 nM; the “Selectivity Class DYRK1A vs. CLK1” value was “III (ratio between 0.5 and 2 fold)”; the “Selectivity Class DYRK1A vs. DYRK1B” value is “III (ratio between 0.5 and 2 fold)”. Also, the IC50 at CLK1 is more than 50 nM.
For the molecule `CC(C)C[C@H](COCc1ccccc1)NC1=N/C(=C\c2ccc3nccnc3c2)C(=O)N1` [Compound 12, (4Z)-2-[[(1R)-1-(benzyloxymethyl)-3-methyl-butyl]amino]-4-(quinoxalin-6-ylmethylene)-1H-imidazol-5-one], on DYRK1A, the IC50 was more than 50 nM; the “Selectivity Class DYRK1A vs. CLK1” value is given as “I (ratio of IC50 on CLK1 or DYRK1B over IC50 on DYRK1A ≥10 fold (most DYRK1A-selective compounds))”; the “Selectivity Class DYRK1A vs. DYRK1B” value is “II (ratio between 2 and 10 fold)”. The IC50 on CLK1 is more than 50 nM.
As to `NC[C@@H](NC1=N/C(=C\c2ccc3nccnc3c2)C(=O)N1)c1ccccc1` [Compound 29, (4Z)-2-[[(1S)-2-Amino-1-phenyl-ethyl]amino]-4-(quinoxalin-6-ylmethylene)-1H-imidazol-5-one dihydrochloride], on DYRK1A, the IC50 fell in the range of 25 to 50 nM; the “Selectivity Class DYRK1A vs. CLK1” value is “III (ratio between 0.5 and 2 fold)”; the “Selectivity Class DYRK1A vs. DYRK1B” value is “II (ratio between 2 and 10 fold)”. Also, the IC50 on CLK1 was more than 50 nM.
In the case of `O=C1NC(N[C@H]2c3ccccc3C[C@@H]2O)=N/C1=C\c1ccc2nccnc2c1` [Compound 23, (4Z)-2-[[(1S,2S)-2-hydroxyindan-1-yl]amino]-4-(quinoxalin-6-ylmethylene)-1H-imidazol-5-one], on DYRK1A, the IC50 was 10 to 25 nM; the “Selectivity Class DYRK1A vs. CLK1” value was “II (ratio between 2 and 10 fold)”; the “Selectivity Class DYRK1A vs. DYRK1B” value is “II (ratio between 2 and 10 fold)”. Further, the IC50 at CLK1 was more than 50 nM.
`O=C1NC(NC2CCCCC2)=N/C1=C\c1ccc2cnccc2c1` [Compound 75, (4Z)-2-(Cyclohexylamino)-4-(6-isoquinolylmethylene)-1H-imidazol-5-one]: on DYRK1A, the IC50 is more than 50 nM; the “Selectivity Class DYRK1A vs. CLK1” value is “III (ratio between 0.5 and 2 fold)”; the “Selectivity Class DYRK1A vs. DYRK1B” value is “II (ratio between 2 and 10 fold)”. The IC50 on CLK1 was more than 50 nM.
Take `O=C1NC(NC2CCCCCC2)=N/C1=C\c1ccc2ncncc2c1` [Compound 77, (4Z)-2-(cycloheptylamino)-4-(quinazolin-6-ylmethylene)-1H-imidazol-5-one]: on DYRK1A, the IC50 is more than 50 nM; the “Selectivity Class DYRK1A vs. CLK1” value was “II (ratio between 2 and 10 fold)”; the “Selectivity Class DYRK1A vs. DYRK1B” value is “II (ratio between 2 and 10 fold)”. Further, the IC50 at CLK1 was more than 50 nM.
Consider `Cc1cnc(CNC2=N/C(=C\c3ccc4cnccc4c3)C(=O)N2)cn1` [Compound 64, (4Z)-4-(6-Isoquinolylmethylene)-2-[(5-methylpyrazin-2-yl)methylamino]-1H-imidazol-5-one], for which, on DYRK1A, the IC50 was more than 50 nM; the “Selectivity Class DYRK1A vs. CLK1” value was “III (ratio between 0.5 and 2 fold)”; the “Selectivity Class DYRK1A vs. DYRK1B” value was “IV (ratio between 0.1 and 0.5 fold)”. Besides, the IC50 on CLK1 is more than 50 nM.
`CN1C(=O)/C(=C/c2ccc3ncncc3c2)N=C1NC1CCCCC1` [Compound 88, (5Z)-2-(Cyclohexylamino)-3-methyl-5-(quinazolin-6-ylmethylene)imidazol-4-one]: at DYRK1A, the IC50 was more than 50 nM; the “Selectivity Class DYRK1A vs. CLK1” value is “III (ratio between 0.5 and 2 fold)”; the “Selectivity Class DYRK1A vs. DYRK1B” value was “III (ratio between 0.5 and 2 fold)”. Besides, the IC50 on CLK1 is more than 50 nM.
`O=C1NC(NCC2CCCCC2)=N/C1=C\c1ccc2cnccc2c1` [Compound 58, (4Z)-2-(Cyclohexylmethylamino)-4-(6-isoquinolylmethylene)-1H-imidazol-5-one]: on DYRK1A, the IC50 was more than 50 nM; the “Selectivity Class DYRK1A vs. CLK1” value is “IV (ratio between 0.1 and 0.5 fold)”; the “Selectivity Class DYRK1A vs. DYRK1B” value was “III (ratio between 0.5 and 2 fold)”. Also, at CLK1, the IC50 was more than 50 nM.
Consider `O=C1NC(NCC2CCCCC2)=N/C1=C\c1ccc2nccnc2c1` [Compound 3, (4Z)-2-(cyclohexylmethylamino)-4-(quinoxalin-6-ylmethylene)-1H-imidazol-5-one], for which, at DYRK1A, the IC50 was more than 50 nM; the “Selectivity Class DYRK1A vs. CLK1” value was “III (ratio between 0.5 and 2 fold)”; the “Selectivity Class DYRK1A vs. DYRK1B” value was “II (ratio between 2 and 10 fold)”. Besides, on CLK1, the IC50 was more than 50 nM.
With `COC[C@@H](CC(C)C)NC1=N/C(=C\c2ccc3ncncc3c2)C(=O)N1` [Compound 78, (4Z)-2-[[(1R)-1-(methoxymethyl)-3-methyl-butyl]amino]-4-(quinazolin-6-ylmethylene)-1H-imidazol-5-one], on DYRK1A, the IC50 was more than 50 nM; the “Selectivity Class DYRK1A vs. CLK1” value was “II (ratio between 2 and 10 fold)”; the “Selectivity Class DYRK1A vs. DYRK1B” value was “II (ratio between 2 and 10 fold)”. Also, on CLK1, the IC50 is more than 50 nM.
